According to the supplement of paper PMC10307832:

How the values were obtained:
Assay in all cases: relative viability (nuclei count vs DMSO), 5 days (fraction); higher = more cells survive
[1] = compound: O=C(/C=C/c1cccnc1)NCCCCC1CCN(C(=O)c2ccccc2)CC1 [Daporinad] + CS(=O)(=O)CCNCc1ccc(-c2ccc3ncnc(Nc4ccc(OCc5cccc(F)c5)c(Cl)c4)c3c2)o1 [Lapatinib] (partner 2 µM)
In short: (§1)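 Relative viability divides the nuclei count in treated wells by that in vehicle wells. Lung cancer cell lines were seeded in 1536-well plates, dosed by pin tool the next day, and fixed and stained after 5 days in one step with final 0.05% Triton X-100, 1% formaldehyde and 1 ug/ml Hoechst. Dosing was a single drug or a fixed anchor-drug dose plus five library-drug doses (not always all listed) in √10 steps, and values are medians of duplicate plates imaged at 4×.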

[2] = compound: COc1cc(Nc2ncc(F)c(Nc3ccc4c(n3)NC(=O)C(C)(C)O4)n2)cc(OC)c1OC [R406] + CS(=O)(=O)N1CCN(Cc2cc3nc(-c4cccc5[nH]ncc45)nc(N4CCOCC4)c3s2)CC1 [Pictilisib] (partner 1 µM)
In short: as §1

[3] = compound: O=C(/C=C/c1cccnc1)NCCCCC1CCN(C(=O)c2ccccc2)CC1 [Daporinad] + Cc1nc(Nc2ncc(C(=O)Nc3c(C)cccc3Cl)s2)cc(N2CCN(CCO)CC2)n1 [Dasatinib] (partner 0.075 µM)
In short: as §1

[4] = compound: COc1cc(Nc2ncc(F)c(Nc3ccc4c(n3)NC(=O)C(C)(C)O4)n2)cc(OC)c1OC [R406] + COc1cccc2cc(-c3nc([C@H]4CC[C@H](C(=O)O)CC4)n4ncnc(N)c34)[nH]c12 [OSI-027] (partner 0.5 µM)
In short: as §1

Cell Line	relative viability ([1]; first compound 0.0005 µM)	relative viability ([1]; first compound 0.001581 µM)	relative viability ([1]; first compound 0.005 µM)	relative viability ([1]; first compound 0.01581 µM)	relative viability ([2]; first compound 0.08 µM)	relative viability ([2]; first compound 0.253 µM)	relative viability ([2]; first compound 0.8 µM)	relative viability ([2]; first compound 2.53 µM)	relative viability ([2]; first compound 8 µM)	relative viability ([3]; first compound 0.0005 µM)	relative viability ([3]; first compound 0.001581 µM)	relative viability ([3]; first compound 0.005 µM)	relative viability ([3]; first compound 0.01581 µM)	relative viability ([4]; first compound 0.08 µM)	relative viability ([4]; first compound 0.253 µM)	relative viability ([4]; first compound 0.8 µM)	relative viability ([4]; first compound 2.53 µM)	relative viability ([4]; first compound 8 µM)
NCI-H1355	0.956	1.09	0.995	0.873	0.521	0.571	0.557	0.211	0.313	0.664	0.674	0.671	0.761	0.474	0.404	0.456	0.163	0.189
HOP-62		1.13	1.04	0.505	0.643	0.846	0.863	0.467	0.488	0.62	0.809	0.721	0.587	0.774	0.958	0.854	0.64	0.654
NCI-H2085	0.739	0.741	0.871	0.855	0.413	0.505	0.459	0.482	0.37	0.268	0.244	0.267	0.284	0.863	0.968	0.861	0.259	0.345
